In publication PMC7287031 (Pharmacology Research & Perspectives, 2020):
One block for each molecule: values may come before it.

Legend:
[1] = test system: CYP enzymes that metabolise ribociclib in HLM (total metabolism; CYP-selective chemical inhibitors); assay: Inhibition of [3H] ribociclib total metabolism in HLM by CYP- and FMO-selective inhibitors; type: in vitro ADME; settings: both, human, human liver microsomes, pH 7.4, probe [3H] ribociclib
[2] = Human ADME study: quantitative metabolite profiling in plasma; type: in vivo; parameters: AUC0-48h: concentration or dose not given beside the values
Procedure: A plasma pool across the six healthy volunteers included in the study was prepared at the time points of 1 hour, 3 hours, 24 hours, and 48 hours post dose. For each time point, an equal volume of plasma was taken from each subject and combined. Plasma pool samples were processed by protein precipitation with acetonitrile. The protein pellet that resulted from precipitation with acetonitrile was washed further with additional aliquots of acetonitrile. All acetonitrile washes were combined and evaporated under nitrogen. For the 3‐ and 24‐hour plasma pools, the extraction procedure was slightly modified, including precipitation of the plasma proteins by addition of a 1:1 mixture of acetonitrile:methanol, followed by washing of the protein pellet with the same solvent mixture. All extracts were reconstituted with a solution of 15‐mM ammonium formate and acetonitrile (95:5 v/v). Extraction and reconstitution recoveries were measured in all four plasma samples in order to calculate and overall recovery. Quantitative metabolite profiling in plasma was accomplished using a Shimadzu Prominence high‐performance liquid chromatography (HPLC) system (Shimadzu, Columbia, MD, USA), coupled with fraction collection and analysis of total radioactivity in individual fractions using AMS (as described above). A second injection of each sample, conducted immediately after the first, was used to provide HPLC fractions for metabolite identification. The fractions identified as containing radioactivity from the AMS analysis were analyzed by HPLC coupled with high‐resolution mass spectrometry to identify the metabolites. The HPLC‐MS/MS methodology used is described below.

[3] = Human ADME study: quantitative metabolite profiling in urine and feces; type: in vivo; settings: for Excretion (% of dose), Total: urine plus feces, pooled excreta n=6
Procedure: Average pools across the six subjects were also created by combining equal percentages (of total urine and feces excreted over the time interval) of the individual subject pools. Urine pools were analyzed directly for metabolite profiling (column recovery of a representative sample was measured), whereas feces pools were subjected to extraction. Specifically, to each aliquot of feces homogenate, two volumes of acetonitrile were added. After centrifugation, the pellet was washed further with an additional two volumes of acetonitrile. […] All washes were combined, evaporated under nitrogen, and reconstituted with a solution of 15‐mM ammonium formate (pH 3.5). This feces extract reconstitute was analyzed for metabolite profiling. Combined extraction and reconstitution (overall recovery) and column recovery were measured. […] The HPLC column used was a Phenomenex Kinetex, C18, 250 × 4.6 mm, equipped with a pre‐column of the same type (2.1 × 4.6 mm), which was placed in a column oven at 40°C. […] The HPLC gradient was as follows: initial conditions were 5% mobile phase B for 1 minute, then increased to 20% at 10 minutes post injection where it was held (isocratic) up to 20 minutes. […] The post column flow was directed to the fraction collector operated in a time‐slice mode and containing 96‐well Lumaplates (Perkin Elmer). The plates were dried at room temperature and the radioactivity was measured using a microplate scintillation counter model TopCount NXT (Perkin Elmer) instrument (up to 3 × 100‐minute counting time). […] Metabolites were identified during the same injections using data generated by the high‐resolution mass spectrometer. The molecular ions and key fragments of each drug‐related component were determined. Key fragments for each metabolite were derived from their product ion mass spectra and were used to determine the metabolite structures. Where possible, structural assignments were supported by exact mass measurement, comparison with synthetic standards and/or Hydrogen/Deuterium (H/D) exchange LC‐MS(/MS).

[4] = Contribution of metabolites to total pharmacological activity in human; settings: considering in vitro measurements and in vivo exposure
[5] = substrate: CN(C)C(=O)c1cc2cnc(Nc3ccc(N4CCNCC4)cn3)nc2n1C1CCCC1; assay: Enzyme kinetics with recombinant CYP1A2 and scaling to HLM; type: in vitro ADME, human; settings: other: recombinant CYP1A2; 37.0 °C
Procedure: (§1) In vitro incubations were carried out in 100‐mM potassium phosphate buffer (pH 7.4) and 5‐mM MgCl2 with a total volume of 200 µL. Substrate and either human liver microsomes (HLM, BD Biosciences, mixed gender pool of n = 50) or recombinant human enzymes (BD Biosciences) were added and pre‐incubated for 3 minutes at 37°C. The reaction was started by addition of a fresh solution of NADPH (1 mmol/L final concentration). The samples were incubated at 37°C with agitation of 500 rpm. For incubations with CYP2A6, CYP2C9, CYP2C18, and CYP4A11, the phosphate buffer was replaced by TRIS buffer (100 mmol/L, pH 7.4) and for flavin‐containing monooxygenases (FMOs), a glycine buffer (50 mM, pH 9.5) was used.
(§2) The enzymatic reaction was stopped and the protein was precipitated by addition of an equal volume of methanol. After 30 min at −80°C, the samples were centrifuged at 30'000 x g for 15 min. The supernatant was withdrawn. Aliquots were analyzed by LSC and the supernatant was diluted with water to obtain a final solution containing less than 20% of the organic solvent. For samples of low substrate concentration, supernatants were evaporated to dryness under nitrogen, then re‐suspended in water containing less than 20% of methanol. Samples were analyzed by HPLC combined with radiodetection.
(§3) The relative contribution of CYP enzymes to oxidative hepatic metabolism was determined using their Clint values multiplied by the unbound fraction in microsomes and their abundances in human liver microsomes. ^15 Among the hepatic P450 enzymes, CYP3A4 contributed predominantly (97%) to metabolism in human liver microsomes (Table 1) with negligible fraction metabolized by CYP1A2 (1.1%), CYP2J2 (0.8%), and CYP3A5 (1.2%).

[6] = substrate: CN(C)C(=O)c1cc2cnc(Nc3ccc(N4CCNCC4)cn3)nc2n1C1CCCC1; assay: Enzyme kinetics with recombinant CYP3A5 and scaling to HLM; type: in vitro ADME, human; settings: other: recombinant CYP3A5; 37.0 °C
Procedure: as §1, §2, §3

[7] = human plasma pools n=6, from metabolite patterns

- IC50 [1]: 1050 nM
Molecule: CC[C@]1(C)C[C@@H](OC(=O)CSc2nnc(N)[nH]2)[C@]2(C)[C@H](C)CC[C@]3(CCC(=O)[C@H]32)[C@@H](C)[C@@H]1O [Azamulin]

- AUC0-48h [2, 7]: 0.0142 µM·h
- AUC0-48h, % of total [14C]-AUC0-48 [2, 7]: 0.0297%
- Concentration in plasma pool ([2]; human, 1 h post dose, pool n=6, from metabolite patterns): 9.50 nM
- Excretion (% of dose), Total [3]: < 5.21 % of dose
Molecule: CN(C)C(=O)c1cc2cnc(Nc3ccc(N4CCN(S(=O)(=O)O)CC4)cn3)nc2n1C1CCCC1 [M8 (CQM386)]

- AUC0-48h, % of total [14C]-AUC0-48 [2, 7]: 9.39%
- metabolite exposure as % of ribociclib exposure ([2]; human plasma, AUC0-48): 21.6%
Molecule: CN(C)C(=O)c1cc2cnc(Nc3ccc(N4CCN(O)CC4)cn3)nc2n1C1CCCC1 [M13 (CCI284)]
- contribution to total pharmacological activity in human [4]: not to have a relevant contribution to total pharmacological activity

- detection in plasma (AMS metabolite profiling) ([2]; human plasma): not observed in plasma
- Excretion (% of dose), Urine ([3]; pooled excreta n=6, from metabolite patterns (radio profiling)): 1.50 % of dose
- Excretion (% of dose), Total [3]: 1.50 % of dose
Molecule: CN(CO)C(=O)c1cc2cnc(Nc3ccc(N4CCNCC4)cn3)nc2n1C1CCCC1 [M15]

- IC50 [1]: > 2000 nM
Molecule: CC(C)(O)c1ccccc1CC[C@@H](SCC1(CC(=O)O)CC1)c1cccc(/C=C/c2ccc3ccc(Cl)cc3n2)c1 [Montelukast]

B1: CYP1A2 (Homo sapiens) (protein)
chain: MALSQSVPFSATELLLASAIFCLVFWVLKGLRPRVPKGLKSPPEPWGWPLLGHVLTLGKNPHLALSRMSQRYGDVLQIRIGSTPVLVLSRLDTIRQALVRQGDDFKGRPDLYTSTLITDGQSLTFSTDSGPVWAARRRLAQNALNTFSIASDPASSSSCYLEEHVSKEAKALISRLQELMAGPGHFDPYNQVVVSVANVIGAMCFGQHFPESSDEMLSLVKNTHEFVETASSGNPLDFFPILRYLPNPALQRFKAFNQRFLWFLQKTVQEHYQDFDKNSVRDITGALFKHSKKGPRASGNLIPQEKIVNLVNDIFGAGFDTVTTAISWSLMYLVTKPEIQRKIQKELDTVIGRERRPRLSDRPQLPYLEAFILETFRHSSFLPFTIPHSTTRDTTLNGFYIPKKCCVFVNQWQVNHDPELWEDPSEFRPERFLTADGTAINKPLSEKMMLFGMGKRRCIGEVLAKWEIFLFLAILLQQLEFSVPPGVKVDLTPIYGLTMKHARCEHVQARLRFSIN
notes: purchased BD Biosciences
- Km [5]: 48 µM
- kcat [5]: 0.0185 s⁻¹
- kcat/Km [5]: 383 M⁻¹ s⁻¹

B2: CYP3A5 (Homo sapiens) (protein)
chain: MDLIPNLAVETWLLLAVSLVLLYLYGTRTHGLFKRLGIPGPTPLPLLGNVLSYRQGLWKFDTECYKKYGKMWGTYEGQLPVLAITDPDVIRTVLVKECYSVFTNRRSLGPVGFMKSAISLAEDEEWKRIRSLLSPTFTSGKLKEMFPIIAQYGDVLVRNLRREAEKGKPVTLKDIFGAYSMDVITGTSFGVNIDSLNNPQDPFVESTKKFLKFGFLDPLFLSIILFPFLTPVFEALNVSLFPKDTINFLSKSVNRMKKSRLNDKQKHRLDFLQLMIDSQNSKETESHKALSDLELAAQSIIFIFAGYETTSSVLSFTLYELATHPDVQQKLQKEIDAVLPNKAPPTYDAVVQMEYLDMVVNETLRLFPVAIRLERTCKKDVEINGVFIPKGSMVVIPTYALHHDPKYWTEPEEFRPERFSKKKDSIDPYIYTPFGTGPRNCIGMRFALMNMKLALIRVLQNFSFKPCKETQIPLKLDTQGLLQPEKPIVLKVDSRDGTLSGE
notes: purchased BD Biosciences
- Km [6]: 23.9 µM
- kcat [6]: 0.0122 s⁻¹
- kcat/Km [6]: 517 M⁻¹ s⁻¹
